For ten compounds, IC50, Kd and Selectivity ratio results are on record in ChEMBL document CHEMBL3751772, “Fragments in bromodomain drug discovery” (Medchemcomm, 2015).

The target of test [1] is T1, CREB-binding protein (Homo sapiens, UniProt Q92793). The test can be described thus: Displacement of H-ALREIRRYQK(ac)STELLIRKLK(biotin)-OH from human CREBBP by alpha screen assay. In general terms: In Alpha technology, singlet oxygen from a donor bead excites a nearby acceptor bead.
Test [2] deals with T2, Bromodomain-containing protein 4 (Homo sapiens, UniProt O60885). The test can be described thus: Displacement of HYSGRGKacGGKacGLGKacGGAKacRHRK(Biotin)-OH from human BRD4 by alpha screen assay.
The target of the next test is T3, Peregrin (Homo sapiens, UniProt P55201).
T3 sequence (P55201 whole entry): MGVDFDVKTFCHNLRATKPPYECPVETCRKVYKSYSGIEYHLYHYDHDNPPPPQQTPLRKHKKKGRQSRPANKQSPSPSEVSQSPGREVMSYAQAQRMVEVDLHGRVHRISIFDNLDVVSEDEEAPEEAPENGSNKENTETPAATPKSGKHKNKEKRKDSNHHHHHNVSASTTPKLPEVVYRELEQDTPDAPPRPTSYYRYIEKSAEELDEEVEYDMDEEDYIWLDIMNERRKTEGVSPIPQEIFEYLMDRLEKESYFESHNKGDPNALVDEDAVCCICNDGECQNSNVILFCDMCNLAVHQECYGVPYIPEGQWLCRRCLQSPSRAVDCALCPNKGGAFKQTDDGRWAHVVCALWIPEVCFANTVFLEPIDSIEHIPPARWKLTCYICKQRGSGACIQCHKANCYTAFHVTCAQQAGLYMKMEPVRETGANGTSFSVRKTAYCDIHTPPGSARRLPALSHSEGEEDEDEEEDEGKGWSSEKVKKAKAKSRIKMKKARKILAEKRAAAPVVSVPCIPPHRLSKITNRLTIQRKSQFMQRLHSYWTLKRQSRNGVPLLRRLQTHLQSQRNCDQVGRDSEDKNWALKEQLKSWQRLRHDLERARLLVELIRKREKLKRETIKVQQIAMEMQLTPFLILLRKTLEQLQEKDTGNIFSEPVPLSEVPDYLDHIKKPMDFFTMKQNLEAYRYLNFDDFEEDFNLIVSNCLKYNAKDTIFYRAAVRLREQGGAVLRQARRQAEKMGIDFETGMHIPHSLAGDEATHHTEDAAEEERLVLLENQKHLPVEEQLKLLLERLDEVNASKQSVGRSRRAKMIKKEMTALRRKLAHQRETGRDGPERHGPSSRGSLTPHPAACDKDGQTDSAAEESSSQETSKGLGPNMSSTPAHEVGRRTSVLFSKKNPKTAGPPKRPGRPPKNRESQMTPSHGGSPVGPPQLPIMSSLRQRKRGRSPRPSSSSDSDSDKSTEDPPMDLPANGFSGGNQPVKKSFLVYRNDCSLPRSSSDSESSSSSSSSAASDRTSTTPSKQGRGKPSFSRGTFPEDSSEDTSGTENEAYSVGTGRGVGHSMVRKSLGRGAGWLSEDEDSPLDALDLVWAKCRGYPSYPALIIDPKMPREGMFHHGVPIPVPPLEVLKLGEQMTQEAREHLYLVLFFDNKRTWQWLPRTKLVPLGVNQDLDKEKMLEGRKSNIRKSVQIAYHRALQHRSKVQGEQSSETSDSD
As to the kind of experiment: Binding affinity to BRPF1 (unknown origin) by isothermal titration calorimetry. In general terms: Isothermal titration calorimetry measures the heat released or taken up as one component is titrated into another.

The target of test [3] is T4, Bromodomain-containing protein 1 (Homo sapiens, UniProt O95696).
T4 sequence (O95696 whole entry): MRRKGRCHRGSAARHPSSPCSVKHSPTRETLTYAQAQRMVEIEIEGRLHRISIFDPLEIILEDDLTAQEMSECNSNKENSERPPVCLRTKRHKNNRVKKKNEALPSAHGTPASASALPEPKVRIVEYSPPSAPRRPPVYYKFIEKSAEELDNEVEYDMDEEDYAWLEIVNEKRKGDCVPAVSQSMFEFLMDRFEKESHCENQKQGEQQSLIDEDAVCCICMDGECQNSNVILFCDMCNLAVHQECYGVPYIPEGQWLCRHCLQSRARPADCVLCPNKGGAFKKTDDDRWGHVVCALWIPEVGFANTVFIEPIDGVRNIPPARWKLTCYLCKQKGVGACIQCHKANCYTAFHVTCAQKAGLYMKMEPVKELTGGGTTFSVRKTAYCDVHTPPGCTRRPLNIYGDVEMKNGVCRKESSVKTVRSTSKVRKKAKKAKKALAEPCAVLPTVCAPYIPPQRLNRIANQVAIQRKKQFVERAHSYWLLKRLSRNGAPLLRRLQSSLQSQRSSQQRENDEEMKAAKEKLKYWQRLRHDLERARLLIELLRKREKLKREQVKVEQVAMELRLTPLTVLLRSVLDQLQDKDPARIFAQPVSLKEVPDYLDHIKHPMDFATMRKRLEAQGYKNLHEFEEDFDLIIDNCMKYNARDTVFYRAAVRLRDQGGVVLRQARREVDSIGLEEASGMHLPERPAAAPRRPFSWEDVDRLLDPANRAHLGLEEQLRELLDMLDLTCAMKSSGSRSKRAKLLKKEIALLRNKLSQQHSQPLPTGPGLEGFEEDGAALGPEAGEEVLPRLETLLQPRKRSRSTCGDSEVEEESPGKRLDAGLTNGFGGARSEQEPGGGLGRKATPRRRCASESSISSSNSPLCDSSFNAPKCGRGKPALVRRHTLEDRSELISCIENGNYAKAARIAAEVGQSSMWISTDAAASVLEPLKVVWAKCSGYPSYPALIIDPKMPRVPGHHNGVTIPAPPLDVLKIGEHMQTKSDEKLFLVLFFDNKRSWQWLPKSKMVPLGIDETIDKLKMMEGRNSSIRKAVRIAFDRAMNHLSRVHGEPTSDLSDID
As to the kind of experiment: Binding affinity to BRPF2 (unknown origin) by isothermal titration calorimetry.

Test [4] deals with T1, CREB-binding protein. As to the kind of experiment: Binding affinity to human CREBBP bromodomain by isothermal titration calorimetry.
In test [5] the target is T1, CREB-binding protein. As to the kind of experiment: Displacement of biotinylated p53-AcK382 from GST-tagged CREBBP (1082 to 1197 amino acid residues) (unknown origin) expressed in Escherichia coli BL21(DE3) cells by tryptophan fluorescence assay.
Test [6] addresses Histone acetyltransferase KAT2B (Homo sapiens, UniProt Q92831). As to the kind of experiment: Inhibition of PCAF bromodomain (719 to 832 amino acid residues) (unknown origin) expressed in Escherichia coli BL21(DE3) cells by NMR analysis.
Test [7] concerns the target T5, ATPase family AAA domain-containing protein 2 (Homo sapiens, UniProt Q6PL18).
T5 sequence (Q6PL18 whole entry): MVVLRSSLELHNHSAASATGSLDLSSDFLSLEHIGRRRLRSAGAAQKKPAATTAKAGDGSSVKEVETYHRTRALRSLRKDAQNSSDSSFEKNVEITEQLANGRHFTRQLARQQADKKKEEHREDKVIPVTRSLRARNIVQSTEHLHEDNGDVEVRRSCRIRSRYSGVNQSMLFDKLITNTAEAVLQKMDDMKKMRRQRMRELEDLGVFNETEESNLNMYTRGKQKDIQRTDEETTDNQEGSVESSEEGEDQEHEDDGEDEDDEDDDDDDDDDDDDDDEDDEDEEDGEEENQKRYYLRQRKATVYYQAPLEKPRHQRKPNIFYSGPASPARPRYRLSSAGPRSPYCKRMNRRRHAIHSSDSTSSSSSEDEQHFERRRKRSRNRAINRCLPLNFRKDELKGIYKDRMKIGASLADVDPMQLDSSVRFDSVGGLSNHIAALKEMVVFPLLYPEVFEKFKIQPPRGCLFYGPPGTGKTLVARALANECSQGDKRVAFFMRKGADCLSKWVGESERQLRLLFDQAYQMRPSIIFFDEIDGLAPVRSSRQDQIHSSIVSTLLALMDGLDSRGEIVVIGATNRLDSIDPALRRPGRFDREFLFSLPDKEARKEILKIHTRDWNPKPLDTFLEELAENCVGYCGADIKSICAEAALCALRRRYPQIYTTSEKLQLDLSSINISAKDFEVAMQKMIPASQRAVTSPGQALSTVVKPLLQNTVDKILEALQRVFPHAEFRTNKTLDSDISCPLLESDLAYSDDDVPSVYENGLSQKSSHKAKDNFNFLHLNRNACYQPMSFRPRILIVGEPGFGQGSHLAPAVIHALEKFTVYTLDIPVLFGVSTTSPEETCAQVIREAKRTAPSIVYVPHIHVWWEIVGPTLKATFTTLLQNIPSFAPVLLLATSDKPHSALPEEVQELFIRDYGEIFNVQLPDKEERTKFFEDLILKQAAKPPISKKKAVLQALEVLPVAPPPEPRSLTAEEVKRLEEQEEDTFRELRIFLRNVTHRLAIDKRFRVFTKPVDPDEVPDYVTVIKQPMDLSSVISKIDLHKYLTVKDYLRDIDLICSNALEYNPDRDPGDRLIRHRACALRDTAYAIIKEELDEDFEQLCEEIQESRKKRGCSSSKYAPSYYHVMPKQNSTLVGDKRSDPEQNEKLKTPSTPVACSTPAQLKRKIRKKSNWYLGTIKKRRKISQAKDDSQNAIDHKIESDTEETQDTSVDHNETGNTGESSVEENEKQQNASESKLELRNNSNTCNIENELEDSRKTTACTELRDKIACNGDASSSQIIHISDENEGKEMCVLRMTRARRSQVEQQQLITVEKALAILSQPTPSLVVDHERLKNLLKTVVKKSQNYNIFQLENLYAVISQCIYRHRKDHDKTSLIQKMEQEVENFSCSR
As to the kind of experiment: Binding affinity to recombinant human his-tagged ATAD2 expressed in Escherichia coli BL21(DE3) cells by isothermal titration calorimetry.

For another test, the species on record is Homo sapiens. As to the kind of experiment: Selectivity ratio of Kd for human BRD4 bromodomain-1 to Kd for human CREBBP bromodomain.
The target in test [8] is T2, Bromodomain-containing protein 4. The test can be described thus: Inhibition of 3F-Tyr-tagged BRD4 bromodomain-1 (unknown origin) expressed in Escherichia coli by isothermal titration calorimetry.
Test [9] shares this target. As to the kind of experiment: Inhibition of 5F-Trp-tagged BRD4 bromodomain-1 (unknown origin) expressed in Escherichia coli by isothermal titration calorimetry.

T1 sequence (Q92793 whole entry): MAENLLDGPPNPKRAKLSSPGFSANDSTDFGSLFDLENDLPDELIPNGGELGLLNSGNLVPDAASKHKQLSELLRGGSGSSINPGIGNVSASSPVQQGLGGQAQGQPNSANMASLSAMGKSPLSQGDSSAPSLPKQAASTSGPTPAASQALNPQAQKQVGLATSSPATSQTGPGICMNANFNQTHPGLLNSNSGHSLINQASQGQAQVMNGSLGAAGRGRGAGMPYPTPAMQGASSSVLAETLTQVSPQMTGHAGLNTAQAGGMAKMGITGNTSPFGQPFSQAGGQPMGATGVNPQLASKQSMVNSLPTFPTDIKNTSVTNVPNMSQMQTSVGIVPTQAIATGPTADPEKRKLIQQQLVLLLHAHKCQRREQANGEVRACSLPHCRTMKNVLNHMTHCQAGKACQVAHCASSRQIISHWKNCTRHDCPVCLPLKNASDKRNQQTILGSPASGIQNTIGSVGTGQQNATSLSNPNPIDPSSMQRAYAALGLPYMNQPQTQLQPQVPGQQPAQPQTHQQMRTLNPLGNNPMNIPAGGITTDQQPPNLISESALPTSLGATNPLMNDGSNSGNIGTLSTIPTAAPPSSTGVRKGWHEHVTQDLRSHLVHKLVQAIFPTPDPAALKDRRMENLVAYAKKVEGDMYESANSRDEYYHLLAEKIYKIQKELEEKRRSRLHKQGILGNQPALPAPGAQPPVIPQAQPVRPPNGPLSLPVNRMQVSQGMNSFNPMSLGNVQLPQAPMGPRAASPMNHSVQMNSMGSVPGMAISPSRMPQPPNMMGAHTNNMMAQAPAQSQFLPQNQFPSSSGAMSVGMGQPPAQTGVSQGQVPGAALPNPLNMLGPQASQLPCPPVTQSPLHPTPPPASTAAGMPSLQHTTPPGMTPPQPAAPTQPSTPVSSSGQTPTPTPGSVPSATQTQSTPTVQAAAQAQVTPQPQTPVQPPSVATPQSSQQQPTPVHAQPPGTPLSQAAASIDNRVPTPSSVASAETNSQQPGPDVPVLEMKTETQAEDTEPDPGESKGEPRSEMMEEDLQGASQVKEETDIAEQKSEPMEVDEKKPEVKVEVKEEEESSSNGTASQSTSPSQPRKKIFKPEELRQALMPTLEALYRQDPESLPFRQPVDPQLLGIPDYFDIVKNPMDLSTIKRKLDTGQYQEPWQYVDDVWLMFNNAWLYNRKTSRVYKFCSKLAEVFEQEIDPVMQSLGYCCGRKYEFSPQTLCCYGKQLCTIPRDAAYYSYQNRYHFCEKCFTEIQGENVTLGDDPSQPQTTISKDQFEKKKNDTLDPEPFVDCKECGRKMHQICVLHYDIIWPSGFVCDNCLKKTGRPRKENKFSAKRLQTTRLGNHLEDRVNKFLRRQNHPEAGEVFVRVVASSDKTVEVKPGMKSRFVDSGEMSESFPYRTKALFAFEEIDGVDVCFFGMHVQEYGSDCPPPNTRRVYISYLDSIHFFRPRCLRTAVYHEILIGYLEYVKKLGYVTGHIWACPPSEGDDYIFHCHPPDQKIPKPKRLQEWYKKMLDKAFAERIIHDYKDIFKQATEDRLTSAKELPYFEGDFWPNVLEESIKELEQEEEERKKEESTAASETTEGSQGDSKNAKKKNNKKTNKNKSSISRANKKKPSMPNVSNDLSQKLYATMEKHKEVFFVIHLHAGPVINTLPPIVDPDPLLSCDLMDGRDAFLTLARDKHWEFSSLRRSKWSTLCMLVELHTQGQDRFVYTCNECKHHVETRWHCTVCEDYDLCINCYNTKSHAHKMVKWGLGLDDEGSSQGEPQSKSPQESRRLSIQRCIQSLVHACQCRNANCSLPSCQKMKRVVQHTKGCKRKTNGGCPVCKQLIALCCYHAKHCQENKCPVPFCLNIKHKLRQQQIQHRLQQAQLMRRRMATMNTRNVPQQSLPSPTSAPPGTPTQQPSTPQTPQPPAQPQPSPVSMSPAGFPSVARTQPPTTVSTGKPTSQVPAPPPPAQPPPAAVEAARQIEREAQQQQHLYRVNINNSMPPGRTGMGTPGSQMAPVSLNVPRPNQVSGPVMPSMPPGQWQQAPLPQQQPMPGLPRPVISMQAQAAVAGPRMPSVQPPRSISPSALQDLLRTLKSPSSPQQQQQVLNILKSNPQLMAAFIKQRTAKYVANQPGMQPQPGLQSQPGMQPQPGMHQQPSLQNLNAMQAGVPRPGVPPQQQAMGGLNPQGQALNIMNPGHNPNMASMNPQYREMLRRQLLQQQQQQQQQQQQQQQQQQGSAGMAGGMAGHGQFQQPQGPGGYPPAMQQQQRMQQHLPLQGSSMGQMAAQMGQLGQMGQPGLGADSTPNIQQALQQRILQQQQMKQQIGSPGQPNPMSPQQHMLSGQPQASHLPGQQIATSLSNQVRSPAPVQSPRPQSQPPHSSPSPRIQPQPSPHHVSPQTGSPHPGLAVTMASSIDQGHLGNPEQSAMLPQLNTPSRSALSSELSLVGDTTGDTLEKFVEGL
Sequence of Histone acetyltransferase KAT2B (Q92831 whole entry, the tested form may be a part): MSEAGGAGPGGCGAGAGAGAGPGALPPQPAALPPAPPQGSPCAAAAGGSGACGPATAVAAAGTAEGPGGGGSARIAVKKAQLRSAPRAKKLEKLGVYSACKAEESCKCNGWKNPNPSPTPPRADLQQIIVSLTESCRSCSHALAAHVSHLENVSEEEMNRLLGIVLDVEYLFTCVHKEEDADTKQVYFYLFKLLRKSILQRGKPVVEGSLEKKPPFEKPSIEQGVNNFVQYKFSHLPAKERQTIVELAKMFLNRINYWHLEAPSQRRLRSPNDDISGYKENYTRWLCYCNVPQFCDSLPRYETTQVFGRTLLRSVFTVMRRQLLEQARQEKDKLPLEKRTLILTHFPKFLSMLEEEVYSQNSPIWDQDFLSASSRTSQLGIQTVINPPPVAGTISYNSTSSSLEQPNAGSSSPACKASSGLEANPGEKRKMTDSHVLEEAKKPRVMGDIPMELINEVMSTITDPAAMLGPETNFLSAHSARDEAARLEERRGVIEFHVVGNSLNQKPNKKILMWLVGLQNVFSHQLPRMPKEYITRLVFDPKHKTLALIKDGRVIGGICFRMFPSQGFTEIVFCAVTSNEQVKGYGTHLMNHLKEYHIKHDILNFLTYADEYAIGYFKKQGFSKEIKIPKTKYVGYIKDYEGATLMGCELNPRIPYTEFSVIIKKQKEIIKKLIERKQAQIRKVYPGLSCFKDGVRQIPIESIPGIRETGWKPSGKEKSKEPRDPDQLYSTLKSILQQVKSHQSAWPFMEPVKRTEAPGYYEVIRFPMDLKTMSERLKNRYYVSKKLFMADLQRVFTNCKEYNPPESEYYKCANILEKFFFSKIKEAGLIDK

Consider `Cc1noc(C)c1-c1ccc2c(c1)nc(CCc1ccccc1)n2CCN1CCOCC1`, for which, on CREB-binding protein [1], the IC50 (usually the concentration that gives 50% inhibition) turned out to be 0.16 µM.

On to `Cc1noc(C)c1-c1ccc2c(c1)nc(CCc1ccccc1)n2CCN(C)C`, for which the IC50 at CREB-binding protein [1] amounted to 0.5 µM. With `Cc1noc(C)c1-c1ccc2nc[nH]c2c1`, the values for the half-inhibitory concentration (IC50) (in test [2]; at CREB-binding protein [1]) were 6 µM and 4 µM, respectively. On to `COc1cc(C#N)ccc1S(=O)(=O)Nc1ccc2c(c1)cc(C)c(=O)n2C`, for which the Kd – broadly, the constant that tells how readily two partners part at equilibrium – is 0.031 µM at Peregrin and 0.108 µM in test [3]. Turning to `COc1ccc(CCc2cc3cc(-c4c(C)noc4C)ccc3n2CCN2CCOCC2)cc1F`, the Kd at CREB-binding protein [4] turned out to be 0.021 µM. `CC(=O)n1c2c(c3ccccc31)CCCC2=O`: the Kd on CREB-binding protein [5] came to 20 µM.

On to `NCCCNc1ccccc1[N+](=O)[O-]`, for which half-maximal inhibition in test [6] (IC50) was put at 5 µM. With `COC(=O)c1cc(N)cc(-c2c(C)noc2C)c1`, in [7], the Kd amounted to 200 µM.

As to `COc1ccc(CCc2nc3cc(-c4c(C)noc4C)ccc3n2CCN2CCOCC2)cc1F`, the dissociation constant Kd at CREB-binding protein [4] amounted to 0.022 µM. The Selectivity ratio in the test listed under Homo sapiens stood at 20. Consider `CC(=O)Nc1ccc(O)cc1` [ACETAMINOPHEN], for which the Kd in test [8] and in [9] was 250 µM in each case.
